According to ChEMBL document CHEMBL4507259 (2021):

Key:
[1] = target: MAP/microtubule affinity-regulating kinase 4 (Homo sapiens) (UniProt Q96L34); settings: Compound concentration 1000.0 nM
[2] = target: ALK tyrosine kinase receptor (Homo sapiens) (UniProt Q9UM73); settings: Compound concentration 1000.0 nM
[3] = target: Fibroblast growth factor receptor 1 (Homo sapiens) (UniProt P11362); settings: Compound concentration 1000.0 nM
[4] = target: cGMP-dependent protein kinase 2 (Homo sapiens) (UniProt Q13237); settings: Compound concentration 1000.0 nM
[5] = target: T1, Alpha-1B adrenergic receptor (Homo sapiens) (UniProt P35368); test: alpha 1B (h) CEREP ligand profiling; settings: filed as antagonist, Compound concentration 10.0 uM
T1 sequence (whole entry): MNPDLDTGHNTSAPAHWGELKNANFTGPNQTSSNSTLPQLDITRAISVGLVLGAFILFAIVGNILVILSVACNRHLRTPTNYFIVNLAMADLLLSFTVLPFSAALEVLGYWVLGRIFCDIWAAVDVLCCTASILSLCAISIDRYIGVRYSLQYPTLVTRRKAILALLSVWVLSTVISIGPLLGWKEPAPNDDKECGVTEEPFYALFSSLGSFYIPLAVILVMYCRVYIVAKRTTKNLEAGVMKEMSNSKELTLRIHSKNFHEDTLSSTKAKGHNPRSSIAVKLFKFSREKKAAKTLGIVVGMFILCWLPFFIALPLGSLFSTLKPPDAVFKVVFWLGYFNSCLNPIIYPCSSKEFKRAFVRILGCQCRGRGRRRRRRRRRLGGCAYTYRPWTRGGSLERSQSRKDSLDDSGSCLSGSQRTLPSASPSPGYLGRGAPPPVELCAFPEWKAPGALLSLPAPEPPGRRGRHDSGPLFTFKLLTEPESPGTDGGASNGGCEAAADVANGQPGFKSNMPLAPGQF

[6] = target: Dual serine/threonine and tyrosine protein kinase (Homo sapiens) (UniProt Q6XUX3); settings: Compound concentration 1000.0 nM
[7] = target: RAC-beta serine/threonine-protein kinase (Homo sapiens) (UniProt P31751); settings: Compound concentration 1000.0 nM
[8] = test system: Fibroblast growth factor receptor 3 (Homo sapiens), P22607 [G697C]; settings: Compound concentration 1000.0 nM
[9] = target: Serine/threonine-protein kinase PknB (Mycobacterium tuberculosis) (UniProt P9WI81); settings: Compound concentration 1000.0 nM
[10] = target: Protein kinase C theta type (Homo sapiens) (UniProt Q04759); settings: Compound concentration 1000.0 nM
[11] = target: Proto-oncogene tyrosine-protein kinase ROS (Homo sapiens) (UniProt P08922); settings: Compound concentration 1000.0 nM
[12] = target: Ephrin type-A receptor 4 (Homo sapiens) (UniProt P54764); settings: Compound concentration 1000.0 nM
[13] = target: Mitogen-activated protein kinase kinase kinase kinase 1 (Homo sapiens) (UniProt Q92918); settings: Compound concentration 1000.0 nM
[14] = target: Phosphorylase b kinase regulatory subunit alpha, liver isoform (Homo sapiens) (UniProt P46019); settings: Compound concentration 1000.0 nM
[15] = target: Serine/threonine-protein kinase STK11 (Homo sapiens) (UniProt Q15831); settings: Compound concentration 1000.0 nM
[16] = target: Casein kinase I isoform alpha-like (Homo sapiens) (UniProt Q8N752); settings: Compound concentration 1000.0 nM
[17] = target: Mast/stem cell growth factor receptor Kit (Homo sapiens) (UniProt P10721); settings: Compound concentration 1000.0 nM
[18] = target: Platelet-derived growth factor receptor beta (Homo sapiens) (UniProt P09619); settings: Compound concentration 1000.0 nM
[19] = target: MAP kinase-activated protein kinase 5 (Homo sapiens) (UniProt Q8IW41); settings: Compound concentration 1000.0 nM
[20] = target: Serine/threonine-protein kinase Sgk2 (Homo sapiens) (UniProt Q9HBY8); settings: Compound concentration 1000.0 nM
[21] = target: Mitogen-activated protein kinase 10 (Homo sapiens) (UniProt P53779); settings: Compound concentration 1000.0 nM
[22] = target: T2, Alpha-1A adrenergic receptor (Homo sapiens) (UniProt P35348); test: alpha 1A (h) CEREP ligand profiling; settings: filed as antagonist, Compound concentration 10.0 uM
T2 sequence (whole entry): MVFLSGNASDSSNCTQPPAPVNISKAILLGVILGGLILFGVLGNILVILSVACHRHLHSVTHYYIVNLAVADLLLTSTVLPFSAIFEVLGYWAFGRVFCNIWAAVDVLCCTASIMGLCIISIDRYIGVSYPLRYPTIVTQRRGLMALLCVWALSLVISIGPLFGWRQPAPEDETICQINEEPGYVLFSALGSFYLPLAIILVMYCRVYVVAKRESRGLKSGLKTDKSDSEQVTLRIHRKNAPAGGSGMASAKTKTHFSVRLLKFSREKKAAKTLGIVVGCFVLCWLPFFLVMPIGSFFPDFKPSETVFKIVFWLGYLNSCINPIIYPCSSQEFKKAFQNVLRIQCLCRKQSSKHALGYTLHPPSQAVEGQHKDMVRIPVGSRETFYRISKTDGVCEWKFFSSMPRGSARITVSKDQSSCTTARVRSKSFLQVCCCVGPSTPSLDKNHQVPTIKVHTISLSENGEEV

[23] = target: Ribosomal protein S6 kinase alpha-2 (Homo sapiens) (UniProt Q15349); settings: Compound concentration 1000.0 nM
[24] = target: Sigma intracellular receptor 2 (Homo sapiens, UniProt Q5BJF2); test: GPCRScan assay: inhibition of Sigma 2; design: radioligand conc. used [nm] 5.0, parental cells HEKT
[25] = target: Serine/threonine-protein kinase SIK1 (Homo sapiens) (UniProt P57059); settings: Compound concentration 1000.0 nM
[26] = target: Serine/threonine-protein kinase DCLK2 (Homo sapiens) (UniProt Q8N568); settings: Compound concentration 1000.0 nM
[27] = target: Beta-2 adrenergic receptor (Homo sapiens) (UniProt P07550); settings: Compound concentration 10.0 uM
[28] = target: Serine/threonine-protein kinase 32C (Homo sapiens) (UniProt Q86UX6); settings: Compound concentration 1000.0 nM
[29] = target: Serine/threonine-protein kinase 38-like (Homo sapiens) (UniProt Q9Y2H1); settings: Compound concentration 1000.0 nM
[30] = target: Tyrosine-protein kinase Lck (Homo sapiens) (UniProt P06239); settings: Compound concentration 1000.0 nM
[31] = target: Maternal embryonic leucine zipper kinase (Homo sapiens) (UniProt Q14680); settings: Compound concentration 1000.0 nM

Sigma intracellular receptor 2, sequence (Q5BJF2 whole entry): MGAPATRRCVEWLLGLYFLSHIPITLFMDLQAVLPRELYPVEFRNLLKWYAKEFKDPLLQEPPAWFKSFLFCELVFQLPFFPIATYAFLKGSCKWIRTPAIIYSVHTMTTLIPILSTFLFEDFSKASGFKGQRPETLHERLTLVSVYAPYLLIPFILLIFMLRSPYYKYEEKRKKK
Mast/stem cell growth factor receptor Kit (Homo sapiens), sequence (P10721 whole entry): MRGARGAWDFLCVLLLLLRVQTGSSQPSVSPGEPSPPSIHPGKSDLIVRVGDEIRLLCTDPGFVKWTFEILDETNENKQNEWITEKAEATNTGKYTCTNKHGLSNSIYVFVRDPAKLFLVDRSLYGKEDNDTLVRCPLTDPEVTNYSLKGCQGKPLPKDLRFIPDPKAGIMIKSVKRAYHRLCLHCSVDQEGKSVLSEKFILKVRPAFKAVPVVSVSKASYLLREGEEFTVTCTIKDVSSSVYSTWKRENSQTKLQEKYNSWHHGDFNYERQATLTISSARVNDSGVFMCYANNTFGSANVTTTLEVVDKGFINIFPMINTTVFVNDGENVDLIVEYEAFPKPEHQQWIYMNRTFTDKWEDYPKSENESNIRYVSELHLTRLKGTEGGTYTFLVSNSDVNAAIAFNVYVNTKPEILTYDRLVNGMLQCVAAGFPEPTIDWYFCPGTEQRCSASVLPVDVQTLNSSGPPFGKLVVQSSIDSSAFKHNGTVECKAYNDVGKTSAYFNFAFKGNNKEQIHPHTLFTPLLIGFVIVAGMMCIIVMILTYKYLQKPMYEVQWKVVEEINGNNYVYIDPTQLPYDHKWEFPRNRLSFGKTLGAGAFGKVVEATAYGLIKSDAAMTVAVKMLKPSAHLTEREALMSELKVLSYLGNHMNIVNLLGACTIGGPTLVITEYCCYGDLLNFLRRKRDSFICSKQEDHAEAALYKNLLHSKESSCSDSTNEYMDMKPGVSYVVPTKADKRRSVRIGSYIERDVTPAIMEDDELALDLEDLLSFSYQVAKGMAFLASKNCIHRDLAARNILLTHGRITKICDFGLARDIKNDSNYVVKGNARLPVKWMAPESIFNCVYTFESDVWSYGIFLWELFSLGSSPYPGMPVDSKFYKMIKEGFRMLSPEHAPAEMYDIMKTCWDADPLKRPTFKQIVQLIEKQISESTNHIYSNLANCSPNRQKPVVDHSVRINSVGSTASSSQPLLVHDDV
Tyrosine-protein kinase Lck (Homo sapiens), sequence (P06239 2-509 limits assumed): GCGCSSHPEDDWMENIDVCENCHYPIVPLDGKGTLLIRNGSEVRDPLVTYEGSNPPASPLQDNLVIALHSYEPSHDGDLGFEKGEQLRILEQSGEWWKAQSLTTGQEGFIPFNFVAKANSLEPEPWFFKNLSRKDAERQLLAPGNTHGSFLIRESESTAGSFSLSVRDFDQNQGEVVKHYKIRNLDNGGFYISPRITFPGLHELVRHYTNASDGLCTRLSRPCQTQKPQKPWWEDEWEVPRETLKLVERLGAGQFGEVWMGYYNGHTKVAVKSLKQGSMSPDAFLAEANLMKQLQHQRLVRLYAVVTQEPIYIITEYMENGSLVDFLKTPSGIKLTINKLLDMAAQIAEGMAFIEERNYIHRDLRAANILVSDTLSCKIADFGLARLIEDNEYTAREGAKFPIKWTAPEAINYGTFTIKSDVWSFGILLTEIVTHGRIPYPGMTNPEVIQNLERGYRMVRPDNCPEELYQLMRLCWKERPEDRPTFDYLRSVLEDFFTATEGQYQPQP
Serine/threonine-protein kinase STK11 (Homo sapiens), sequence (Q15831 whole entry, canonical isoform): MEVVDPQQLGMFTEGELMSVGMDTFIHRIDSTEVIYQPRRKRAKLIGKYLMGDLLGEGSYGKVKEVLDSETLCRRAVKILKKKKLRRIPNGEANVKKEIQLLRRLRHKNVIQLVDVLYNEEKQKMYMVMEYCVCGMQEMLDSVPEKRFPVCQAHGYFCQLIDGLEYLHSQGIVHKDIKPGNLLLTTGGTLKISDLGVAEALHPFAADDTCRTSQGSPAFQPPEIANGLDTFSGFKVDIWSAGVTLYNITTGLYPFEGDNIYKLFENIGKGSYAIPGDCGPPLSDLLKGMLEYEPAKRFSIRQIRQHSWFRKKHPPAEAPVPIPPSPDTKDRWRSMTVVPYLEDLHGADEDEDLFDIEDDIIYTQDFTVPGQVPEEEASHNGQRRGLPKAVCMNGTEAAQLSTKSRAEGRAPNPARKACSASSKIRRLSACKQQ
Protein kinase C theta type (Homo sapiens), sequence (Q04759 whole entry, looked up): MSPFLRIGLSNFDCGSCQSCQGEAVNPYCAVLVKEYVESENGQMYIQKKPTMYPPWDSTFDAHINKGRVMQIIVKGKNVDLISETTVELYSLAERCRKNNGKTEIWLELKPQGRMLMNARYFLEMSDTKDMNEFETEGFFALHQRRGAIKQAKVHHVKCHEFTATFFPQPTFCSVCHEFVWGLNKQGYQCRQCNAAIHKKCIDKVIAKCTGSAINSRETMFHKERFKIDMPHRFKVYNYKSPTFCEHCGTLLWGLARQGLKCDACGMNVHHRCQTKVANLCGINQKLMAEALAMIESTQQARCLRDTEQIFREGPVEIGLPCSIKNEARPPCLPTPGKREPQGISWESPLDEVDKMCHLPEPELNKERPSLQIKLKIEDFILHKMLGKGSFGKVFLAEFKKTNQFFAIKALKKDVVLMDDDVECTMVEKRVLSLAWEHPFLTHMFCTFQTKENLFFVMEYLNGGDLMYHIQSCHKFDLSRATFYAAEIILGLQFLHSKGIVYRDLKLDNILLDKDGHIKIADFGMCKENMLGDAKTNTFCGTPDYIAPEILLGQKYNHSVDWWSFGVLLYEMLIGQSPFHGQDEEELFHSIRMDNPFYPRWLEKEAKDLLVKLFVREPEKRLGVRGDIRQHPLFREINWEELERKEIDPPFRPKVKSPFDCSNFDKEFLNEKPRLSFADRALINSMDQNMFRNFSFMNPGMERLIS
RAC-beta serine/threonine-protein kinase (Homo sapiens), sequence (P31751 whole entry): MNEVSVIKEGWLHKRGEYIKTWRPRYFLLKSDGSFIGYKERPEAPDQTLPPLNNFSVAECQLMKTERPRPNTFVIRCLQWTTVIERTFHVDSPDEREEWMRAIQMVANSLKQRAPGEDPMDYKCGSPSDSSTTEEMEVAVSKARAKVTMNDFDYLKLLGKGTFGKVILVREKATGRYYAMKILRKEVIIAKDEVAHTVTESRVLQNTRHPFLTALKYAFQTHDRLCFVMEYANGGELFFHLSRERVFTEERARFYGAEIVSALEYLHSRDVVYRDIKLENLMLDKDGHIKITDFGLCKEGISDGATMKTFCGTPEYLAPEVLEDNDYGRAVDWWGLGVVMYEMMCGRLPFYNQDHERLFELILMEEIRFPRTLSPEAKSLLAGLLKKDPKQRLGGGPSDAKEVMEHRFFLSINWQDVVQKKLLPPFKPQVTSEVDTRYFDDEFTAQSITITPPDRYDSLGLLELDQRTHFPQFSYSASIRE
MAP/microtubule affinity-regulating kinase 4 (Homo sapiens), sequence (Q96L34 whole entry): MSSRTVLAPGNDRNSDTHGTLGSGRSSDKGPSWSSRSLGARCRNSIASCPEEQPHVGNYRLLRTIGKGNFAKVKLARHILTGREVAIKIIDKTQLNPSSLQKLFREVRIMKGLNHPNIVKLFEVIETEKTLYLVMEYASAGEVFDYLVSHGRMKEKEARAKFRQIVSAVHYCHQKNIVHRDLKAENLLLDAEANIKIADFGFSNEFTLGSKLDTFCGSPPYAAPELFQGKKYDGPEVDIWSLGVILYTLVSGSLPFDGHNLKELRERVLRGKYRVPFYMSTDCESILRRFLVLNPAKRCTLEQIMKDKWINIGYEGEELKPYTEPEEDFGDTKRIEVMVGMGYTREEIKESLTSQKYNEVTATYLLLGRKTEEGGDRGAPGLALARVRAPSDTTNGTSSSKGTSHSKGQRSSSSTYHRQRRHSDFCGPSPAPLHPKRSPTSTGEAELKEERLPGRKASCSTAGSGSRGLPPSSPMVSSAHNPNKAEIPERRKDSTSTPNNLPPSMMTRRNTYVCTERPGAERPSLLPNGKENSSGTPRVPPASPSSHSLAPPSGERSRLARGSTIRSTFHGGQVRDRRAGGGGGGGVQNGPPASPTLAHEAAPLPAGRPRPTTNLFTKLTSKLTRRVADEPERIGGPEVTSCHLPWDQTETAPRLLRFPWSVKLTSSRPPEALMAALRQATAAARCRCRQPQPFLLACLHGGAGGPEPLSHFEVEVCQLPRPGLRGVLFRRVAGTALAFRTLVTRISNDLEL
Mitogen-activated protein kinase kinase kinase kinase 1 (Homo sapiens), sequence (Q92918 whole entry, looked up, canonical isoform): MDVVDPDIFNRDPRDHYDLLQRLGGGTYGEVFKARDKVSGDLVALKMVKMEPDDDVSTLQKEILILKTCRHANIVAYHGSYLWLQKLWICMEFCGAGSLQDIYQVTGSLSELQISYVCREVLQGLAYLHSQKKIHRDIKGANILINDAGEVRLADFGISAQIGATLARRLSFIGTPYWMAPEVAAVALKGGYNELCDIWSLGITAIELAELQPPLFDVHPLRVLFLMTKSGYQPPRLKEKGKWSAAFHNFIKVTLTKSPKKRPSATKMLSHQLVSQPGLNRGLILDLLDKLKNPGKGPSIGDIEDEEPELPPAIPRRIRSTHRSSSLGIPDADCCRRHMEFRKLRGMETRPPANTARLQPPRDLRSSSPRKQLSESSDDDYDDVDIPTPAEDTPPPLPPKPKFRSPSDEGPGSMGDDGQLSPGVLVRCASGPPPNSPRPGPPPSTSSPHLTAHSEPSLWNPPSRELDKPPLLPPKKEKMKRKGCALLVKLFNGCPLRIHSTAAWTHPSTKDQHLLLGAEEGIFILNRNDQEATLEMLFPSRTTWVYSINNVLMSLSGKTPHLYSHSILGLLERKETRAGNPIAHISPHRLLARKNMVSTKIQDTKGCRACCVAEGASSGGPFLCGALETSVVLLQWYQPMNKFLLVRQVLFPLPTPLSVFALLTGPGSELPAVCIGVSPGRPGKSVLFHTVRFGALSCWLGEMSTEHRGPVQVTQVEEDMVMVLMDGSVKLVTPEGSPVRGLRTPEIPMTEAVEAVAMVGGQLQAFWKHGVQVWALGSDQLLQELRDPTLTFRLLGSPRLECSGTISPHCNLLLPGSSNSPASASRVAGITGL

SMILES: CNC(=O)Nc1ccc2c(c1)[C@@]1(CC2)OC(=O)N(CC(=O)N(Cc2ccc(F)cc2)[C@@H](C)C(F)(F)F)C1=O [A-486]
- residual activity [1]: 92%
- residual activity [2]: 77%
- residual activity [3]: 84%
- residual activity [4]: 85%
- inhibition [5]: -6%
- residual activity [6]: 89%
- residual activity [7]: 99%
- residual activity [8]: 96%
- residual activity [9]: 84%
- residual activity [10]: 89%
- residual activity [11]: 87%
- residual activity [12]: 86%
- residual activity [13]: 90%
- residual activity [14]: 100%
- residual activity [15]: 100%
- residual activity [16]: 100%
- residual activity [17]: 94%
- residual activity [18]: 87%
- residual activity [19]: 86%
- residual activity [20]: 88%
- residual activity [21]: 67%
- inhibition [22]: 16%
- residual activity [23]: 87%
- Ki ([24]; read-out: Ki): 3.27 µM
- residual activity [25]: 90%
- residual activity [26]: 89%
- inhibition [27]: 24.7%
- residual activity [28]: 100%
- residual activity [29]: 67%
- residual activity [30]: 86%
- residual activity [31]: 100%

SMILES: CNC(=O)Nc1ccc2c(c1)CC[C@@]21OC(=O)N(CC(=O)N(Cc2ccc(F)cc2)[C@@H](C)C(F)(F)F)C1=O [A-485]
- residual activity [1]: 84%
- residual activity [2]: 68%
- residual activity [3]: 82%
- residual activity [4]: 86%
- inhibition [5]: 4%
- residual activity [6]: 78%
- residual activity [7]: 80%
- residual activity [8]: 79%
- residual activity [9]: 83%
- residual activity [10]: 71%
- residual activity [11]: 80%
- residual activity [12]: 89%
- residual activity [13]: 99%
- residual activity [14]: 97%
- residual activity [15]: 100%
- residual activity [16]: 88%
- residual activity [17]: 100%
- residual activity [18]: 100%
- residual activity [19]: 82%
- residual activity [20]: 100%
- residual activity [21]: 73%
- inhibition [22]: 29%
- residual activity [23]: 76%
- Ki ([24]; read-out: Ki): 5.53 µM
- Ki ([24]; read-out: pKi (converted)): 5.13 µM
- residual activity [25]: 98%
- residual activity [26]: 70%
- inhibition [27]: 19%
- residual activity [28]: 88%
- residual activity [29]: 66%
- residual activity [30]: 84%
- residual activity [31]: 91%
